Experimental data published in patent US9573891B2, “Complexes of agomelatine and sulphonic acids, a process for their preparation and pharmaceutical compositions containing them” (LES LABORATOIRES SERVIER, priority 2013, dated 2017).

Tests used:
[1] = Solubility by HPLC (external standard method) compared with agomelatine of form II; assay type: physicochemical
Experimental: Using an external standard method, the compounds of Examples 1, 2 and 3 are tested by HPLC and compared with agomelatine of form II. The results are presented in Table 5 in the form of % increase in solubility relative to the solubility of agomelatine of form II: […]

[2] = Stability under denaturing conditions in incubators, determined by DSC over 2 months; assay type: physicochemical
Experimental: Samples of the compounds of Examples 1, 2 and 3 are placed in incubators under denaturing conditions and the stability is determined by DSC measurements over 2 months.

| Solubility (increase versus agomelatine form II) in 0.1N HCl [1] | Solubility (increase versus agomelatine form II) in a buffer pH 6.8 [1] | Solubility (increase versus agomelatine form II) in water [1] | Stability ([2]; 25° C., 60% RH, open bottle) | Stability ([2]; 50° C., closed bottle) | Stability ([2]; 70° C., closed bottle) | SMILES |
| --- | --- | --- | --- | --- | --- | --- |
| +32% | +46% | +22% | stable | stable | stable | COc1ccc2cccc(CCNC(C)=O)c2c1.COc1ccc2cccc(CCNC(C)=O)c2c1.O=S(=O)(O)c1ccccc1 [Compound of Example 3, Agomelatine/Benzenesulphonic Acid (2/1) Complex] |
| +75% | +57% | +12% | stable | stable | stable | COc1ccc2cccc(CCNC(C)=O)c2c1.O.O=S(=O)(O)c1cccc2c(S(=O)(=O)O)cccc12 [Compound of Example 2, Agomelatine/1,5-Naphthalenedisulphonic Acid (2/1) Monohydrate Complex] |
| +25% | +48% | +18% | stable | stable | stable | COc1ccc2cccc(CCNC(C)=O)c2c1.O=S(=O)(O)c1cccc2c(S(=O)(=O)O)cccc12 [Compound of Example 1, Agomelatine/1,5-Naphthalenedisulphonic Acid (2/1) Complex] |
